{"source": "paper PMC9686653", "about": "“Bioengineered Nisin A Derivatives Display Enhanced Activity against Clinical Neonatal Pathogens” (Antibiotics, 2022)", "key": {"S. agalactiae CIT 67": {"tested_on": "S. agalactiae CIT 67", "test": "Broth MIC assay", "assay_type": "cell-based, Streptococcus agalactiae", "description": "(§1) MIC determinations were carried out in triplicate in 96-well microtiter plates (Sarstedt, Newton, NC, USA) as previously described. Initially, 200µL of 1% bovine serum albumin (BSA) (Sigma-Aldrich, St. Louis, MO, USA) (in PBS) was added to the plates which were incubated at 37 °C for 30 min. The solution was removed, plates were washed with 200 µL PBS and then air dried in a laminar flow hood. Target strains (Streptococcus agalactiae, Staphylococcus capitis and Lactococcus lactis) were grown overnight in suitable media under appropriate conditions and were subsequently sub-cultured into fresh broth and allowed to grow to an optical density of ~0.5 (OD600). The culture was then diluted to a final concentration of 10^5 CFU mL^−1 in a volume of 1 mL. The peptides were resuspended in appropriate media to a stock concentration of […] (S. agalactiae and S. capitis strains) and […] (L. lactis strains). Nisin A and nisin derivatives were adjusted to a starting concentration of 15 µM (S. agalactiae and S. capitis strains) or 5 µM (L. lactis strains). […] An aliquot of 100 µL of peptides and or antibiotics were added to the first well, mixed and then 2-fold serial dilutions of each peptide were made in TSBYE broth. Then, 100 µL of target strain was added to each test well, and the plates were incubated at 30 °C or 37 °C for 16 h. The MIC was read as the lowest peptide concentration causing inhibition of visible growth. Experiments were performed in triplicate."}, "[1]": {"tested_on": "clinical isolates of S. agalactiae (n = 5) and S. capitis (n = 5)", "test": "Deferred antagonism agar-based assay", "assay_type": "cell-based, Streptococcus agalactiae, Staphylococcus capitis", "conditions": "pathogenic indicators, n = 10", "description": "All plates were supplemented with sub-inhibitory concentration (10 µg/L) of nisin in the form of nisaplin to ensure induction of the nisin mutants.\nSite-saturation mutagenesis of three codons, including threonine, lysine and methionine, at positions 2, 12 and 17 of the nisA gene, was carried out as described previously. Briefly, pDF23 (pCI372-PV) was used as a template and oligonucleotides, NisT2deg-FOR and REV, NisK12deg-FOR and REV and Nis17deg-FOR and REV, containing an NNK codon potentially encoding for all twenty standard amino acids. Deferred antagonism agar-based assays were employed to assess the bioactivity of the nisin derivatives (PV, K12X-PV, T2X-PV, and M17X-PV) produced by each strain. Briefly, fresh overnight cultures of each L. lactis test culture was replicated on GM17/TSBYE agar plates containing 0.1% nisaplin using a 96-pin replicator (Boekel, Feasterville, PA, USA) and incubated overnight at 30 °C before being exposed to ultraviolet radiation for 45 min. The plates were then overlayed with GM17/TYSBYE agar (0.75% agar) and seeded (0.5% inoculum) with either Lactococcus lactis MG1614 (NSR-), the nisin resistance protein-expressing indicator strain L. lactis MG1614 pNP40 (NSR+) or TSBYE agar seeded with Staphylococcus capitis (NSR+) or Streptococcus agalactiae (NSR+) isolates. […]"}, "S. capitis AY41": {"tested_on": "S. capitis AY41", "test": "microbe, parasite or virus in culture", "assay_type": "cell-based, Staphylococcus capitis", "description": "as §1"}, "S. capitis AR18": {"tested_on": "S. capitis AR18", "test": "Broth MIC assay", "assay_type": "cell-based", "conditions": "Staphylococcus capitis, AR18, 16 h", "description": "as §1"}, "S. capitis AV80": {"tested_on": "S. capitis AV80", "test": "Broth MIC assay", "assay_type": "cell-based", "conditions": "Staphylococcus capitis, AV80, 16 h", "description": "as §1"}, "S. capitis BA06": {"tested_on": "S. capitis BA06", "test": "Broth MIC assay", "assay_type": "cell-based, Staphylococcus capitis", "conditions": "Staphylococcus capitis, BA06, 16 h", "description": "as §1"}, "S. capitis BD01": {"tested_on": "S. capitis BD01", "test": "Broth MIC assay", "assay_type": "cell-based, Staphylococcus capitis", "description": "as §1"}, "[2]": {"conditions": "cited from earlier work", "description": "NSR degrades nisin by cleaving the pept ..."}, "S. agalactiae CIT 87": {"tested_on": "S. agalactiae CIT 87", "test": "Broth MIC assay", "assay_type": "cell-based, Streptococcus agalactiae", "conditions": "broth microdilution in TSBYE, 10^5 CFU/mL, 16 h, 37 °C; average of three independent biological repeats", "description": "as §1"}, "S. agalactiae CIT 239": {"tested_on": "S. agalactiae CIT 239", "test": "Broth MIC assay", "assay_type": "cell-based, Streptococcus agalactiae", "conditions": "broth microdilution in TSBYE, 10^5 CFU/mL, 16 h, 37 °C; average of three independent biological repeats", "description": "as §1"}, "S. agalactiae CIT 85": {"tested_on": "S. agalactiae CIT 85", "test": "Broth MIC assay", "assay_type": "cell-based, Streptococcus agalactiae", "conditions": "broth microdilution in TSBYE, 10^5 CFU/mL, 16 h, 37 °C; average of three independent biological repeats", "description": "as §1"}, "S. agalactiae CIT 364": {"tested_on": "S. agalactiae CIT 364", "test": "Broth MIC assay", "assay_type": "cell-based, Streptococcus agalactiae", "conditions": "broth microdilution in TSBYE, 10^5 CFU/mL, 16 h, 37 °C; average of three independent biological repeats", "description": "as §1"}, "[3]": {"conditions": "broth microdilution in TSBYE, 10^5 CFU/mL, 16 h, 37 °C, average of three independent biological repeats"}}, "note": "Marks after values point to notes of the source that are not given here. Where no end group is shown, it is not given here.", "data": [{"compound": "C=C(NC(=O)[C@@H](NC(=O)[C@H](Cc1c[nH]cn1)NC(=O)[C@@H](NC(=O)[C@@H]1CCCN1C(=O)[C@@H]1CS[C@@H](C)[C@H]2NC(=O)[C@H](C)NC(=O)[C@H](NC(=O)[C@H](CCCCN)NC(=O)[C@H](CCSC)NC(=O)[C@H](CC(N)=O)NC(=O)[C@@H]3CS[C@@H](C)[C@@H](NC(=O)[C@H](CCCCN)NC(=O)[C@@H]4CS[C@@H](C)[C@@H](NC(=O)[C@@H]5CSC[C@@H](NC(=O)[C@H](C)NC(=O)[C@@H](N)[C@@H](C)CC)C(=O)N[C@@H]([C@@H](C)CC)C(=O)NC(=C)C(=O)N[C@@H](CC(C)C)C(=O)N5)C(=O)N5CCC[C@H]5C(=O)NCC(=O)N4)C(=O)NCC(=O)N[C@@H](C)C(=O)N[C@@H](CC(C)C)C(=O)N[C@@H](CCSC)C(=O)NCC(=O)N3)[C@H](C)SC[C@H](NC2=O)C(=O)N[C@@H](Cc2c[nH]cn2)C(=O)N1)C(C)C)C(C)C)C(=O)N[C@@H](CCCCN)C(=O)O", "note": "[T2A-PV]", "values": [{"measurement": "fold decrease in specific activity compared to nisin A", "setting": "S. agalactiae CIT 67; from MIC", "value": 2, "unit": "fold"}, {"measurement": "fold decrease in specific activity compared to nisin PV", "setting": "S. agalactiae CIT 67; from MIC", "value": 4, "unit": "fold"}, {"measurement": "bioactivity (zone of inhibition) of the producing strain", "setting": "[1]", "value": "not apparent against the pathogenic isolates"}, {"measurement": "MIC", "setting": "S. capitis AY41; 16 h", "value": "12.5 * µg/mL"}, {"measurement": "fold decrease in potency compared to nisin PV", "setting": "S. capitis AY41; from MIC", "value": 2, "unit": "fold"}, {"measurement": "fold increase in potency compared to nisin A", "setting": "S. capitis AY41; from MIC", "value": 2, "unit": "fold"}]}, {"compound": "CN[C@H](CC(C)C)C(=O)N[C@H]1C(=O)N[C@@H](CC(N)=O)C(=O)N[C@H]2C(=O)N[C@H]3C(=O)N[C@H](C(=O)N[C@H](C(=O)O)c4cc(O)cc(O)c4-c4cc3ccc4O)[C@H](O)c3ccc(c(Cl)c3)Oc3cc2cc(c3O[C@@H]2O[C@H](CO)[C@@H](O)[C@H](O)[C@H]2O[C@H]2C[C@](C)(N)[C@H](O)[C@H](C)O2)Oc2ccc(cc2Cl)[C@H]1O", "note": "[Vancomycin, vancomycin]", "values": [{"measurement": "MIC", "setting": "S. capitis AY41; Staphylococcus capitis, AY41, 16 h", "value": 1.56, "unit": "µg/mL"}, {"measurement": "MIC", "setting": "S. capitis AR18", "value": 1.56, "unit": "µg/mL"}, {"measurement": "MIC", "setting": "S. capitis AV80", "value": 3.13, "unit": "µg/mL"}, {"measurement": "MIC", "setting": "S. capitis BA06", "value": 1.56, "unit": "µg/mL"}, {"measurement": "MIC", "setting": "S. capitis BD01; Staphylococcus capitis, BD01, 16 h", "value": 3.13, "unit": "µg/mL"}]}, {"compound": "nisin 1–28: truncated nisin structure left after NSR cleavage (ITSISLCTPGCKTGALMGCNMKTATCHC; ends and bridges not checked; also: lantibiotic thioether rings (Lan/MeLan) and dehydro residues, places not given here; UniProt P13068 24-51, looked up, fragment)", "values": [{"measurement": "decrease in antimicrobial activity compared to nisin", "setting": "[2]", "value": "up to 100 fold"}]}, {"compound": "penicillin", "values": [{"measurement": "MIC", "setting": "S. agalactiae CIT 87", "value": 0.02, "unit": "µg/mL"}, {"measurement": "MIC", "setting": "S. agalactiae CIT 239", "value": 0.02, "unit": "µg/mL"}, {"measurement": "MIC", "setting": "S. agalactiae CIT 85", "value": 0.012, "unit": "µg/mL"}, {"measurement": "MIC", "setting": "S. agalactiae CIT 67; [3]", "value": 0.04, "unit": "µg/mL"}, {"measurement": "MIC", "setting": "S. agalactiae CIT 364", "value": 0.02, "unit": "µg/mL"}, {"measurement": "MIC", "setting": "S. capitis AY41; [3]", "value": 0.39, "unit": "µg/mL"}, {"measurement": "MIC", "setting": "S. capitis BD01; [3]", "value": 6.25, "unit": "µg/mL"}]}]}
